From US12077503B2, “Substituted cyclic amides and their use as herbicides” (FMC CORPORATION, priority 2015, dated 2024)
Where two headings read alike, the source gives them in different places.

Legend:
Type in all cases: in vivo
[1] = system: pigweed (Amaranthus retroflexus); assay: Test A postemergence; conditions: Amaranthus retroflexus, post-emergence, 240 h, postemergence, read-out: Pigweed plant response rating; for pest or weed control at 125 g/ha: 125 g ai/ha, visual injury on 0 to 100 scale (0 no effect, 100 complete control), approx. 10 d; for pest or weed control at 500 g/ha: 500 g ai/ha, 0 to 100 scale, 0 is no effect, 100 is complete control
Outline: (§1)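 Greenhouse, ~10 d after spray; visual injury vs untreated controls, 0 = no effect, 100 = complete control. Preemergence: directed soil spray over planted seeds. Postemergence: plants 2–10 cm, 1–2 leaf stage. Loam/sand blend. Compound in non-phytotoxic solvent with surfactant.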

[2] = system: blackgrass (Alopecurus myosuroides); assay: Test A postemergence; conditions: Alopecurus myosuroides, post-emergence, 240 h; for pest or weed control at 125 g/ha: 125 g ai/ha; for pest or weed control at 500 g/ha: 500 g ai/ha
Outline: as §1

[3] = system: barnyardgrass (Echinochloa crus-galli); assay: Test A postemergence; conditions: Echinochloa crus-galli, post-emergence, 240 h; for pest or weed control at 125 g/ha: 125 g ai/ha; for pest or weed control at 500 g/ha: 500 g ai/ha
Outline: as §1

[4] = system: ragweed (common ragweed, Ambrosia elatior); assay: Test A postemergence; conditions: Ambrosia artemisiifolia, post-emergence, 240 h, postemergence, read-out: Ragweed plant response rating; for pest or weed control at 125 g/ha: 125 g ai/ha, visual injury on 0 to 100 scale (0 no effect, 100 complete control), approx. 10 d; for pest or weed control at 500 g/ha: 500 g ai/ha, 0 to 100 scale, 0 is no effect, 100 is complete control
Outline: as §1

[5] = system: giant foxtail (Setaria faberii); assay: Test A postemergence; conditions: Setaria faberi, post-emergence, 240 h, postemergence; for pest or weed control at 125 g/ha: 125 g ai/ha, visual injury on 0 to 100 scale (0 no effect, 100 complete control); for pest or weed control at 500 g/ha: 500 g ai/ha
Outline: as §1

[6] = system: wheat (Triticum aestivum); assay: Test A postemergence; conditions: Triticum aestivum, post-emergence, 240 h, postemergence, read-out: Wheat plant response rating; for plant injury at 125 g/ha: 125 g ai/ha, visual injury on 0 to 100 scale (0 no effect, 100 complete control), approx. 10 d; for plant injury at 500 g/ha: 500 g ai/ha, 0 to 100 scale, 0 is no effect, 100 is complete control
Outline: as §1

Kochia (Kochia scoparia) = assay: Test A postemergence; conditions: Bassia scoparia, post-emergence, 240 h, postemergence; for pest or weed control at 125 g/ha: 125 g ai/ha, visual injury on 0 to 100 scale (0 no effect, 100 complete control); for pest or weed control at 500 g/ha: 500 g ai/ha
Outline: as §1

[7] = system: Galium (catchweed bedstraw, Galium aparine); assay: Test A postemergence; conditions: Galium, post-emergence, 240 h, postemergence; for pest or weed control at 125 g/ha: 125 g ai/ha, visual injury on 0 to 100 scale (0 no effect, 100 complete control); for pest or weed control at 500 g/ha: 500 g ai/ha
Outline: as §1

[8] = system: ryegrass, Italian (Italian ryegrass, Lolium multiflorum); assay: Test A postemergence; conditions: Lolium multiflorum, post-emergence, 240 h, postemergence, read-out: Ryegrass, Italian plant response rating; for pest or weed control at 125 g/ha: 125 g ai/ha, visual injury on 0 to 100 scale (0 no effect, 100 complete control), approx. 10 d; for pest or weed control at 500 g/ha: 500 g ai/ha, 0 to 100 scale, 0 is no effect, 100 is complete control
Outline: as §1

corn (Zea mays) = assay: Test A postemergence; conditions: Zea mays, post-emergence, 240 h; for Corn plant response rating (crop injury, 0 = no effect, 100 = complete kill) at 500 g/ha / plant injury at 500 g/ha: 500 g ai/ha; for Corn plant response rating (crop injury, 0 = no effect, 100 = complete kill) at 500 g/ha / plant injury at 125 g/ha / plant injury at 500 g/ha: postemergence; for Corn plant response rating (crop injury, 0 = no effect, 100 = complete kill) at 500 g/ha: visual injury, 0 to 100 scale (0 no effect, 100 complete control); for Corn plant response rating (crop injury, 0 = no effect, 100 = complete kill) at 500 g/ha / plant injury at 125 g/ha: approx. 10 d; for plant injury at 125 g/ha: visual injury on 0 to 100 scale (0 no effect, 100 complete control); for plant injury at 125 g/ha / plant injury at 500 g/ha: read-out: Corn plant response rating; for plant injury at 500 g/ha: 0 to 100 scale, 0 is no effect, 100 is complete control
Outline: as §1

[9] = system: ragweed (common ragweed, Ambrosia elatior); assay: Test A preemergence; conditions: Ambrosia artemisiifolia, pre-emergence, 240 h; for pest or weed control at 500 g/ha: 500 g ai/ha, visual injury rating about 10 d after treatment, 0 to 100 scale (0 no effect, 100 complete control); for pest or weed control at 125 g/ha: 125 g ai/ha
Outline: as §1

[10] = system: barnyardgrass (Echinochloa crus-galli); assay: Test B flooded paddy test; conditions: Echinochloa crus-galli, 250 g ai/ha, Flood; 0 to 100 scale where 0 is no effect and 100 is complete control; read-out: Barnyardgrass plant response rating
Outline: (§2)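 Plants at 2-leaf stage flooded to 3 cm above soil, with compounds applied directly to paddy water and that depth maintained. Plants kept in greenhouse 13–15 d. Visual rating versus controls on a 0 (no effect) to 100 (complete control) scale.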

rice (Oryra sativa) = assay: Test B flooded paddy test; conditions: Oryza sativa, 250 g ai/ha, Flood; 0 to 100 scale where 0 is no effect and 100 is complete control; read-out: Rice plant response rating
Outline: as §2

[11] = system: ducksalad (Heteranthera limosa); assay: Test B flooded paddy test; conditions: Heteranthera limosa, 250 g ai/ha, Flood; 0 to 100 scale where 0 is no effect and 100 is complete control; read-out: Ducksalad plant response rating
Outline: as §2

[12] = system: sedge, umbrella (small-flower umbrella sedge, Cyperus difformis); assay: Test B flooded paddy test; conditions: Cyperus difformis, 250 g ai/ha, Flood; 0 to 100 scale where 0 is no effect and 100 is complete control; read-out: Sedge, Umbrella plant response rating
Outline: as §2

[13] = postemergence, visual injury, 0 to 100 scale (0 no effect, 100 complete control), approx. 10 d, read-out: Plant response rating, Blackgrass
[14] = postemergence, visual injury, 0 to 100 scale (0 no effect, 100 complete control), approx. 10 d, read-out: Plant response rating, Barnyardgrass
[15] = approx. 10 d, read-out: Foxtail, Giant plant response rating
[16] = visual injury, 0 to 100 scale (0 no effect, 100 complete control), approx. 10 d, read-out: Plant response rating, Foxtail, Giant
[17] = approx. 10 d, read-out: Kochia plant response rating
[18] = approx. 10 d, read-out: Galium plant response rating
[19] = visual injury, 0 to 100 scale (0 no effect, 100 complete control), approx. 10 d, read-out: Plant response rating, Galium
[20] = preemergence, read-out: Ragweed plant response rating
[21] = postemergence, visual injury on 0 to 100 scale (0 no effect, 100 complete control), approx. 10 d, read-out: Blackgrass plant response rating
[22] = postemergence, visual injury on 0 to 100 scale (0 no effect, 100 complete control), approx. 10 d, read-out: Barnyardgrass plant response rating
[23] = postemergence, 0 to 100 scale, 0 is no effect, 100 is complete control, read-out: Blackgrass plant response rating
[24] = postemergence, 0 to 100 scale, 0 is no effect, 100 is complete control, read-out: Barnyardgrass plant response rating
[25] = 0 to 100 scale, 0 is no effect, 100 is complete control, read-out: Foxtail, Giant plant response rating
[26] = 0 to 100 scale, 0 is no effect, 100 is complete control, read-out: Kochia plant response rating
[27] = 0 to 100 scale, 0 is no effect, 100 is complete control, read-out: Galium plant response rating
[28] = preemergence, 0 to 100 scale where 0 is no effect and 100 is complete control, approx. 10 d, read-out: Ragweed plant response rating

| SMILES | pest or weed control at 125 g/ha [1] [%] | pest or weed control at 500 g/ha [2, 13] [%] | pest or weed control at 500 g/ha [3, 14] [%] | pest or weed control at 125 g/ha [4] [%] | pest or weed control at 125 g/ha [5, 15] [%] | pest or weed control at 500 g/ha [5, 16] [%] | plant injury at 125 g/ha [6] [%] | pest or weed control at 125 g/ha (Kochia (Kochia scoparia); [17]) [%] | pest or weed control at 125 g/ha [7, 18] [%] | pest or weed control at 500 g/ha [7, 19] [%] | pest or weed control at 125 g/ha [8] [%] | Corn plant response rating (crop injury, 0 = no effect, 100 = complete kill) at 500 g/ha (corn (Zea mays)) [%] | pest or weed control at 500 g/ha [9, 20] [%] | pest or weed control at 250 g/ha [10] [%] | pest or weed control at 250 g/ha (rice (Oryra sativa)) [%] | pest or weed control at 250 g/ha [11] [%] | pest or weed control at 250 g/ha [12] [%] | pest or weed control at 125 g/ha [2, 21] [%] | pest or weed control at 125 g/ha [3, 22] [%] | plant injury at 125 g/ha (corn (Zea mays); 125 g ai/ha) [%] | further results |
| --- | --- | --- | --- | --- | --- | --- | --- | --- | --- | --- | --- | --- | --- | --- | --- | --- | --- | --- | --- | --- | --- |
| Cc1cc([C@H]2CNC(=O)[C@@H]2C(=O)Nc2cccc(F)c2F)ccc1C(F)(F)F [Compound 1040] | 40 | 70 | 90 | 0 | 80 | 90 | 20 | 60 | 50 | 70 | 30 | 80 | 80 | 60 | 0 | 75 | 0 |  |  |  | pest or weed control at 125 g/ha ([2]; Postemergence, visual injury after approximately 10 d, 0 to 100 scale where 0 is no effect and 100 is complete control, read-out: Plant response rating, Blackgrass): 60%; pest or weed control at 125 g/ha ([3]; Postemergence, visual injury after approximately 10 d, 0 to 100 scale where 0 is no effect and 100 is complete control, read-out: Plant response rating, Barnyardgrass): 80%; pest or weed control at 500 g/ha (Kochia (Kochia scoparia); visual injury, 0 to 100 scale (0 no effect, 100 complete control), approx. 10 d, read-out: Plant response rating, Kochia): 70%; Corn plant response rating (crop injury, 0 = no effect, 100 = complete kill) at 125 g/ha (corn (Zea mays); 125 g ai/ha, Postemergence, visual injury after approximately 10 d, 0 to 100 scale where 0 is no effect and 100 is complete control): 60% |
| Cc1cc([C@H]2CNC(=O)[C@@H]2C(=O)Nc2ccccc2S(C)(=O)=O)ccc1C(F)(F)F [Compound 1041] | 0 | 40 | 50 | 0 | 0 | 50 | 0 | 0 | 40 | 60 | 0 | 30 |  | 0 | 0 | 100 | 0 | 0 | 0 | 0 | pest or weed control at 125 g/ha ([9]; Preemergence, visual injury rating after approximately 10 d, read-out: Ragweed plant response rating (0 to 100 scale, 0 is no effect, 100 is complete control)): 20% |
| CCc1cccc([C@H]2CCNC(=O)[C@@H]2C(=O)Nc2cccc(F)c2F)c1 [Compound 1058] | 0 |  |  | 80 | 0 |  | 0 | 0 | 50 |  | 0 |  | 0 | 35 | 25 | 0 | 0 | 30 | 70 | 0 | pest or weed control at 500 g/ha [1]: 0%; pest or weed control at 500 g/ha [2, 23]: 40%; pest or weed control at 500 g/ha [3, 24]: 90%; pest or weed control at 500 g/ha [4]: 90%; pest or weed control at 500 g/ha [5, 25]: 0%; plant injury at 500 g/ha [6]: 0%; pest or weed control at 500 g/ha (Kochia (Kochia scoparia); [26]): 20%; pest or weed control at 500 g/ha [7, 27]: 60%; pest or weed control at 500 g/ha [8]: 0%; plant injury at 500 g/ha (corn (Zea mays)): 30%; pest or weed control at 125 g/ha [9, 28]: 0% |
| CN1C[C@H](c2cc(F)cc(F)c2)[C@@H](C(=O)Nc2ncccc2Cl)C1=O [Compound 1097] | 0 |  |  | 0 | 0 |  | 0 | 0 | 0 |  | 0 |  | 0 | 0 | 0 | 0 | 0 | 0 | 0 | 0 | pest or weed control at 500 g/ha [1]: 0%; pest or weed control at 500 g/ha [2, 23]: 0%; pest or weed control at 500 g/ha [3, 24]: 0%; pest or weed control at 500 g/ha [4]: 0%; pest or weed control at 500 g/ha [5, 25]: 0%; plant injury at 500 g/ha [6]: 0%; pest or weed control at 500 g/ha (Kochia (Kochia scoparia); [26]): 0%; pest or weed control at 500 g/ha [7, 27]: 0%; pest or weed control at 500 g/ha [8]: 0%; plant injury at 500 g/ha (corn (Zea mays)): 0%; pest or weed control at 125 g/ha [9, 28]: 0% |
